Laboratory results as given in US20260232678A1, “Nasal Spray for Phosphodiesterase Inhibitors” (Cyrano Therapeutics, Inc., priority 2022, published 2026).

Assays:
[1] = tested on: phantosmia and phantogeusia; experiment: Treatment of phantosmia in a subject; assay type: in vivo; conditions: thioridazine composition in nasal spray device, 3× daily in each naris
Description: A subject is admitted to a clinic for phantosmia and phantogeusia. The subject is prescribed a thioridazine composition in a nasal spray device described herein. The subject administers the nasal spray in an effective dose 3× daily in each naris. The nasal spray is characterized by a spray containing a D50 of about 15 μm to about 24 μm, a D90 of from about 30 μm to about 50 μm and where less than about 3% of the droplets in the plume of a spray have a size of less than about 10 μm.

[2] = tested on: chemosensory dysfunction associated with Parkinson's disease; experiment: Treatment of Parkinson's disease chemosensory dysfunction; assay type: in vivo, human; conditions: about 0.4 ml per day of 3.1 mg/ml theophylline, nasal spray twice daily in each naris, 7 days
Protocol: An adult human subject was treated for chemosensory dysfunction associated with Parkinson's disease. […] The subject was administered about 0.4 ml per day of a liquid composition comprising theophylline at a concentration of 3.1 mg/ml in a nasal spray device described herein. The subject administered the nasal spray twice daily in each naris.

[3] = cited from earlier work

Which “symptoms of the phantosmia and phantogeusia” value [1] does the source give for `CSc1ccc2c(c1)N(CCC1CCCCN1C)c1ccccc1S2` (stereo not shown) [thioridazine] here?
Its value is “reduced symptoms”.

With `Cn1c(=O)c2[nH]cnc2n(C)c1=O` [Theophylline, theophylline] as the compound, how does the “ability to taste and smell” value [2] read?
Its value is “regained their ability to taste and smell”.

What about the solubility in ethanol ([3]; ethanol) of the same compound?
Its solubility in ethanol is 14 to 15 mg/mL.

What about the solubility in water ([3]; water) of the same compound?
Its solubility in water is 7 to 8 mg/mL.
